Biological target: T1, ALK (Homo sapiens, UniProt Q9UM73)
T1 construct: purchased Millipore
Assay: ALK kinase assay (HTRF), apparent Ki
Assay type: biochemical
Conditions: apparent Ki from IC50 by Cheng-Prusoff; ALK (Millipore), 50 μM ATP; read-out: HTRF_ALK Human-Ki
Procedure: The following procedure is used to determine ALK Activity.
ALK kinase assays were conducted with the indicated final concentrations unless otherwise specified. In 384 well black plates (Axygen), 8 μl of compound (2% DMSO) was incubated with 8 μl Lck-peptide substrate (0.5 μM, biotin-Ahx-GAEEEIYAAFFA-COOH) and 8 μl of a mixture of ALK (3 nM, Millipore) and ATP (50 μM) in reaction buffer (50 mM Hepes, pH 7.4; 10 mM MgCl2; 2 mM MnCl2; 0.1 mM sodium orthovanadate; 0.01% BSA and 1 mM DTT (added fresh before assay) for 1 h at room temperature. Reactions were then quenched by the addition of 30 μl quench solution (streptavidin-allophycocyanin and Europium-cryptate PT66 monoclonal antibody in 40 mM Hepes, pH 7.4; 480 mM KF; 66 mM EDTA; 0.01% Tween-20; and 0.1% BSA) at room temperature. Plates were read 1 h after quenching on an Envision Multilaber Reader and IC50 values were calculated using a sigmoidal fit of the concentration/inhibition response curves. These values were converted to apparent Ki values using the Cheng-Prusoff relationship.
Alternatively, 4 nM ALK (Millipore) and 50 μM ATP were pre-incubated for 30 min at room temperate in 384 well plates (Corning 3676) in 2.5× reaction buffer (125 nM SEB from Cisbio Bioassays, 12.5 mM MgCl2, 5 mM MnCl2, and 2.5 mM DTT). Reactions were initiated by the addition of 4 μl ALK-ATP mixture to 2 μl compounds (2% DMSO) and 4 μl TK-substrate biotin (Cisbio Bioassays). After incubation for 1 h at room temperature, reactions were quenched in 10 μl stop buffer (Cisbio detection buffer containing Streptavididn-XL665 and Eu-Cryptate PT66 monoclonal antibody). Plates were read 1 h after quenching on an Envision Multilaber Reader and IC50 values were calculated using a sigmoidal fit of the concentration/inhibition response curves. These values were converted to apparent Ki values using the Cheng-Prusoff relationship. Results are shown in Table 1 A correlates to an Ki=<100 nM, B correlates to an Ki between 100 nM and 1 μM, C correlates to an Ki=>1 μM.

T1 sequence (Q9UM73 19-1620): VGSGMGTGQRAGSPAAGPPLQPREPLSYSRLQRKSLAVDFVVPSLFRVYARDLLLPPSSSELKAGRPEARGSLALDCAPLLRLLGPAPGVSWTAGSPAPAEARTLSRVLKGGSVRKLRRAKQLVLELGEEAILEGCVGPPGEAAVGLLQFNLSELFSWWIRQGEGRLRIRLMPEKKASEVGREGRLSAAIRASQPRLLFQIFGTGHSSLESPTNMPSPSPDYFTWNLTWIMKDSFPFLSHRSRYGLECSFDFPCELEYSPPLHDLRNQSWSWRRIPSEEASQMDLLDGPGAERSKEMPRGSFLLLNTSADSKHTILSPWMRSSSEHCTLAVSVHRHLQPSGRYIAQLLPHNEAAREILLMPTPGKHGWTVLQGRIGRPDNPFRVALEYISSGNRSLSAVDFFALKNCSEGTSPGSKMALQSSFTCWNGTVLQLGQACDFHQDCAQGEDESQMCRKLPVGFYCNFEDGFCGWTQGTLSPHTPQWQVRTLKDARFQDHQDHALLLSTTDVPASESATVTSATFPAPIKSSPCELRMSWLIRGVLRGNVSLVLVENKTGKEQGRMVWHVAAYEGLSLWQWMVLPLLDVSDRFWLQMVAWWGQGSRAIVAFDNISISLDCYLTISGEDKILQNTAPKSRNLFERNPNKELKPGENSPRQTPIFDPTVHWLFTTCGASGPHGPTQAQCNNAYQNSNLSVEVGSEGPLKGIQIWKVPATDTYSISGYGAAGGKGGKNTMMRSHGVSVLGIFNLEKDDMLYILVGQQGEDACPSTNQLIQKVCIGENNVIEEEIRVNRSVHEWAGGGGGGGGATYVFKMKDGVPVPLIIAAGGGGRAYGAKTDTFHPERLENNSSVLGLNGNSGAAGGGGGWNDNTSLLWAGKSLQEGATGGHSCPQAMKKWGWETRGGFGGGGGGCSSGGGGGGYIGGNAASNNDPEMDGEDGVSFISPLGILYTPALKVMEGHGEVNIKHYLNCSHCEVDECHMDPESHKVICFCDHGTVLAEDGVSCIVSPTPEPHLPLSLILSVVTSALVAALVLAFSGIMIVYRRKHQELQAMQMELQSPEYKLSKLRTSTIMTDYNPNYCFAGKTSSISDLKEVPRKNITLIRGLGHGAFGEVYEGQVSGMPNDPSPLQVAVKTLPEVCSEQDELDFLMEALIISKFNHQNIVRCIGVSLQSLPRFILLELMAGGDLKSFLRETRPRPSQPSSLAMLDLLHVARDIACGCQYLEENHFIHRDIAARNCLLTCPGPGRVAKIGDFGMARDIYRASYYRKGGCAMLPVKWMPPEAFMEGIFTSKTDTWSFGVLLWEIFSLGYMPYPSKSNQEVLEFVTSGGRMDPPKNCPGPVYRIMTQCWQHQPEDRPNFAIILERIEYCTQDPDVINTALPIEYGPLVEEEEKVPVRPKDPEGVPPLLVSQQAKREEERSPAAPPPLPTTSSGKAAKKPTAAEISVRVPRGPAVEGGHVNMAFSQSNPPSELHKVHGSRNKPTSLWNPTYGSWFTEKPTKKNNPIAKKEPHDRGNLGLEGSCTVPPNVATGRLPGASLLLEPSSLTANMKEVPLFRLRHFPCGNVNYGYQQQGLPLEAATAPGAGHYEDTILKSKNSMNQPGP

Structure (SMILES)	Ki
CN1CCN(c2ccc(Nc3cc(Cc4ccccc4-c4ccccc4)cnc3C(N)=O)cc2)CC1 [Example 32, 5-(biphenyl-2-ylmethyl)-3-{[4-(4-methylpiperazin-1-yl)phenyl]amino}pyridine-2-carboxamide]	0.1 to 1 µM
CN1CCN(c2ccc(Nc3cc(Cc4cccc(C(F)(F)F)c4)cnc3C(N)=O)cc2)CC1 [Example 33, 3-{[4-(4-methylpiperazin-1-yl)phenyl]amino}-5-[3-(trifluoromethyl)benzyl]pyridine-2-carboxamide]	0.1 to 1 µM
CC(c1cccc(F)c1)c1cnc(C(N)=O)c(Nc2ccc(N3CCN(C)CC3)c(Cl)c2)c1 (centres unmarked) [Example 36, 3-{[3-chloro-4-(4-methylpiperazin-1-yl)phenyl]amino}-5-[1-(3-fluorophenyl)ethyl]pyridine-2-carboxamide]	0.1 to 1 µM
COc1cc(N2CCN(C)CC2)ccc1Nc1cc(Cc2c(Cl)cccc2Cl)cnc1C(N)=O [Example 38, 5-(2,6-dichlorobenzyl)-3-{[2-methoxy-4-(4-methylpiperazin-1-yl)phenyl]amino}pyridine-2-carboxamide]	< 0.1 µM
NC(=O)c1ncc(Cc2c(Cl)cccc2Cl)cc1Nc1ccc(N2CCNCC2)cc1 [Example 39, 5-(2,6-dichlorobenzyl)-3-{[4-(piperazin-1-yl)phenyl]amino}pyridine-2-carboxamide]	< 0.1 µM
CN1CCN(c2ccc(Nc3cc(Cc4cc(F)ccc4Cl)cnc3C(N)=O)cc2Cl)CC1 [Example 40, 5-(2-chloro-5-fluorobenzyl)-3-{[3-chloro-4-(4-methylpiperazin-1-yl)phenyl]amino}pyridine-2-carboxamide]	0.1 to 1 µM
COc1cc(N2CCNCC2)ccc1Nc1cc(Cc2c(F)cccc2Cl)cnc1C(N)=O [Example 42, 5-(2-chloro-6-fluorobenzyl)-3-{[2-methoxy-4-(piperazin-1-yl)phenyl]amino}pyridine-2-carboxamide]	< 0.1 µM
CCN(CC)CCN1CCN(c2ccc(Nc3cc(Cc4c(F)cccc4Cl)cnc3C(N)=O)c(OC)c2)CC1 [Example 44, 5-(2-chloro-6-fluorobenzyl)-3-[(4-{4-[2-(diethylamino)ethyl]piperazin-1-yl}-2-methoxyphenyl)amino]pyridine-2-carboxamide]	< 0.1 µM
CCN1CCN(c2ccc(Nc3cc(Cc4c(F)cccc4Cl)cnc3C(N)=O)c(OC)c2)CC1 [Example 47, 5-(2-chloro-6-fluorobenzyl)-3-{[4-(4-ethylpiperazin-1-yl)-2-methoxyphenyl]amino}pyridine-2-carboxamide]	< 0.1 µM
COc1cc(N2CCNCC2)ccc1Nc1cc(Cc2c(F)ccc(F)c2Cl)cnc1C(N)=O [Example 48, 5-(2-chloro-3,6-difluorobenzyl)-3-{[2-methoxy-4-(piperazin-1-yl)phenyl]amino}pyridine-2-carboxamide]	0.1 to 1 µM
CN1CCN(c2ccc(Nc3cc(-c4ccccc4F)cnc3C(N)=O)cc2)CC1 [Example 50, 5-(2-fluorophenyl)-3-{[4-(4-methylpiperazin-1-yl)phenyl]amino}pyridine-2-carboxamide]	0.1 to 1 µM
CN1CCN(c2ccc(Nc3cc(-c4cccc(F)c4)cnc3C(N)=O)cc2)CC1 [Example 51, 5-(3-fluorophenyl)-3-{[4-(4-methylpiperazin-1-yl)phenyl]amino}pyridine-2-carboxamide]	> 1 µM
CN1CCN(c2ccc(Nc3cc(-c4cccc(Cl)c4)cnc3C(N)=O)cc2)CC1 [Example 52, 5-(3-chlorophenyl)-3-{[4-(4-methylpiperazin-1-yl)phenyl]amino}pyridine-2-carboxamide]	> 1 µM
CN1CCN(c2ccc(Nc3cc(-c4cccc(C(N)=O)c4)cnc3C(N)=O)cc2)CC1 [Example 53, 5-(3-carbamoylphenyl)-3-{[4-(4-methylpiperazin-1-yl)phenyl]amino}pyridine-2-carboxamide]	0.1 to 1 µM
CN1CCN(c2ccc(Nc3cc(-c4cccc(NS(C)(=O)=O)c4)cnc3C(N)=O)cc2)CC1 [Example 54, 3-{[4-(4-methylpiperazin-1-yl)phenyl]amino}-5-{3-[(methylsulfonyl)amino]phenyl}pyridine-2-carboxamide]	< 0.1 µM
CN1CCN(c2ccc(Nc3cc(-c4ccccc4NS(C)(=O)=O)cnc3C(N)=O)cc2)CC1 [Example 55, 3-{[4-(4-methylpiperazin-1-yl)phenyl]amino}-5-{2-[(methylsulfonyl)amino]phenyl}pyridine-2-carboxamide]	0.1 to 1 µM
COc1cc(N2CCN(C)CC2)ccc1Nc1cc(-c2cccc(NS(C)(=O)=O)c2)cnc1C(N)=O [Example 57, 3-{[2-methoxy-4-(4-methylpiperazin-1-yl)phenyl]amino}-5-{3-[(methylsulfonyl)amino]phenyl}pyridine-2-carboxamide]	0.1 to 1 µM
CN1CCN(c2ccc(Nc3cc(-c4ccccc4Cl)cnc3C(N)=O)cc2)CC1 [Example 58, 5-(2-chlorophenyl)-3-{[4-(4-methylpiperazin-1-yl)phenyl]amino}pyridine-2-carboxamide]	0.1 to 1 µM
CN1CCN(c2ccc(Nc3cc(-c4cccc(C#N)c4)cnc3C(N)=O)cc2)CC1 [Example 59, 5-(3-cyanophenyl)-3-{[4-(4-methylpiperazin-1-yl)phenyl]amino}pyridine-2-carboxamide]	> 1 µM
CN1CCN(c2ccc(Nc3cc(-c4ccccc4C#N)cnc3C(N)=O)cc2)CC1 [Example 61, 5-(2-cyanophenyl)-3-{[4-(4-methylpiperazin-1-yl)phenyl]amino}pyridine-2-carboxamide]	> 1 µM

Continued, values first:

Ki	Structure (SMILES)
< 0.1 µM	CN1CCN(c2ccc(Nc3cc(Cc4c(F)cccc4Cl)cnc3C(N)=O)cc2)CC1 [Example 30, 5-(2-chloro-6-fluorobenzyl)-3-{[4-(4-methylpiperazin-1-yl)phenyl]amino}pyridine-2-carboxamide]
< 0.1 µM	CN1CCN(c2ccc(Nc3cc(Cc4c(Cl)cccc4Cl)cnc3C(N)=O)cc2)CC1 [Example 31, 5-(2,6-dichlorobenzyl)-3-{[4-(4-methylpiperazin-1-yl)phenyl]amino}pyridine-2-carboxamide]
0.1 to 1 µM	CC(c1cccc(F)c1)c1cnc(C(N)=O)c(Nc2ccc(N3CCN(C)CC3)cc2)c1 (centres unmarked) [Example 34, 5-[1-(3-fluorophenyl)ethyl]-3-{[4-(4-methylpiperazin-1-yl)phenyl]amino}pyridine-2-carboxamide]
0.1 to 1 µM	CN1CCN(c2ccc(Nc3cc(C(C)(C)c4cccc(F)c4)cnc3C(N)=O)cc2)CC1 [Example 35, 5-[2-(3-fluorophenyl)propan-2-yl]-3-{[4-(4-methylpiperazin-1-yl)phenyl]amino}pyridine-2-carboxamide]
0.1 to 1 µM	COc1cc(N2CCN(C)CC2)ccc1Nc1cc(C(C)c2cccc(F)c2)cnc1C(N)=O (centres unmarked) [Example 37, 5-[1-(3-fluorophenyl)ethyl]-3-{[2-methoxy-4-(4-methylpiperazin-1-yl)phenyl]amino}pyridine-2-carboxamide]
< 0.1 µM	COc1cc(N2CCNCC2)ccc1Nc1cc(Cc2cc(F)ccc2Cl)cnc1C(N)=O [Example 41, 5-(2-chloro-5-fluorobenzyl)-3-{[2-methoxy-4-(piperazin-1-yl)phenyl]amino}pyridine-2-carboxamide]
0.1 to 1 µM	COc1cc(N2CCN(CCN3CCOCC3)CC2)ccc1Nc1cc(Cc2c(F)cccc2Cl)cnc1C(N)=O [Example 43, 5-(2-chloro-6-fluorobenzyl)-3-[(2-methoxy-4-{4-[2-(morpholin-4-yl)ethyl]piperazin-1-yl}phenyl)amino]pyridine-2-carboxamide]
0.1 to 1 µM	COc1cc(N2CCN(CC(C)(C)O)CC2)ccc1Nc1cc(Cc2c(F)cccc2Cl)cnc1C(N)=O [Example 45, 5-(2-chloro-6-fluorobenzyl)-3-({4-[4-(2-hydroxy-2-methylpropyl)piperazin-1-yl]-2-methoxyphenyl}amino)pyridine-2-carboxamide]
0.1 to 1 µM	COc1cc(N2CCN(C)CC2)ccc1Nc1cc(Cc2c(F)cccc2Cl)cnc1C(N)=O [Example 46, 5-(2-chloro-6-fluorobenzyl)-3-{[2-methoxy-4-(4-methylpiperazin-1-yl)phenyl]amino}pyridine-2-carboxamide]
0.1 to 1 µM	Cc1ccccc1-c1cnc(C(N)=O)c(Nc2ccc(N3CCN(C)CC3)cc2)c1 [Example 49, 5-(2-methylphenyl)-3-{[4-(4-methylpiperazin-1-yl)phenyl]amino}pyridine-2-carboxamide]
> 1 µM	CN1CCN(c2ccc(Nc3cc(/C=C/c4ccccc4)cnc3C(N)=O)cc2)CC1 [Example 56, 3-{[4-(4-methylpiperazin-1-yl)phenyl]amino}-5-[(E)-2-phenylvinyl]pyridine-2-carboxamide]
> 1 µM	CN1CCN(c2ccc(Nc3cc(-c4cccnc4)cnc3C(N)=O)cc2)CC1 [Example 60, 5-{[4-(4-methylpiperazin-1-yl)phenyl]amino}-3,3′-bipyridine-6-carboxamide]

Reference: patent publication US8859546B2, “Picolinamide inhibitors of kinases” (AbbVie Inc., priority 2011, dated 2014)
